Assays:
[1] = molecular target: Mitogen-activated protein kinase kinase kinase 6 (Homo sapiens) (UniProt O95382); conditions: Compound concentration 100.0 nM
[2] = molecular target: Cyclin-dependent kinase 11B (Homo sapiens) (UniProt P21127); conditions: Compound concentration 100.0 nM
[3] = tested on: Epidermal growth factor receptor (Homo sapiens), P00533 [UNDEFINED MUTATION]; conditions: Compound concentration 100.0 nM
[4] = molecular target: Cyclin-dependent kinase 19 (Homo sapiens) (UniProt Q9BWU1); conditions: Compound concentration 100.0 nM
[5] = molecular target: Cyclin-G-associated kinase (Homo sapiens) (UniProt O14976); conditions: Compound concentration 100.0 nM
[6] = molecular target: Receptor-type tyrosine-protein kinase FLT3 (Homo sapiens) (UniProt P36888); conditions: Compound concentration 100.0 nM
[7] = molecular target: Tyrosine-protein kinase ABL1 (Homo sapiens) (UniProt P00519); conditions: Compound concentration 100.0 nM
[8] = molecular target: Mitogen-activated protein kinase kinase kinase 7 (Homo sapiens) (UniProt O43318); conditions: Compound concentration 100.0 nM
[9] = molecular target: Tyrosine-protein kinase SYK (Homo sapiens) (UniProt P43405); conditions: Compound concentration 100.0 nM
[10] = molecular target: T1, Serine/threonine-protein kinase Nek1 (Homo sapiens) (UniProt Q96PY6); conditions: Compound concentration 100.0 nM
T1 sequence (whole entry): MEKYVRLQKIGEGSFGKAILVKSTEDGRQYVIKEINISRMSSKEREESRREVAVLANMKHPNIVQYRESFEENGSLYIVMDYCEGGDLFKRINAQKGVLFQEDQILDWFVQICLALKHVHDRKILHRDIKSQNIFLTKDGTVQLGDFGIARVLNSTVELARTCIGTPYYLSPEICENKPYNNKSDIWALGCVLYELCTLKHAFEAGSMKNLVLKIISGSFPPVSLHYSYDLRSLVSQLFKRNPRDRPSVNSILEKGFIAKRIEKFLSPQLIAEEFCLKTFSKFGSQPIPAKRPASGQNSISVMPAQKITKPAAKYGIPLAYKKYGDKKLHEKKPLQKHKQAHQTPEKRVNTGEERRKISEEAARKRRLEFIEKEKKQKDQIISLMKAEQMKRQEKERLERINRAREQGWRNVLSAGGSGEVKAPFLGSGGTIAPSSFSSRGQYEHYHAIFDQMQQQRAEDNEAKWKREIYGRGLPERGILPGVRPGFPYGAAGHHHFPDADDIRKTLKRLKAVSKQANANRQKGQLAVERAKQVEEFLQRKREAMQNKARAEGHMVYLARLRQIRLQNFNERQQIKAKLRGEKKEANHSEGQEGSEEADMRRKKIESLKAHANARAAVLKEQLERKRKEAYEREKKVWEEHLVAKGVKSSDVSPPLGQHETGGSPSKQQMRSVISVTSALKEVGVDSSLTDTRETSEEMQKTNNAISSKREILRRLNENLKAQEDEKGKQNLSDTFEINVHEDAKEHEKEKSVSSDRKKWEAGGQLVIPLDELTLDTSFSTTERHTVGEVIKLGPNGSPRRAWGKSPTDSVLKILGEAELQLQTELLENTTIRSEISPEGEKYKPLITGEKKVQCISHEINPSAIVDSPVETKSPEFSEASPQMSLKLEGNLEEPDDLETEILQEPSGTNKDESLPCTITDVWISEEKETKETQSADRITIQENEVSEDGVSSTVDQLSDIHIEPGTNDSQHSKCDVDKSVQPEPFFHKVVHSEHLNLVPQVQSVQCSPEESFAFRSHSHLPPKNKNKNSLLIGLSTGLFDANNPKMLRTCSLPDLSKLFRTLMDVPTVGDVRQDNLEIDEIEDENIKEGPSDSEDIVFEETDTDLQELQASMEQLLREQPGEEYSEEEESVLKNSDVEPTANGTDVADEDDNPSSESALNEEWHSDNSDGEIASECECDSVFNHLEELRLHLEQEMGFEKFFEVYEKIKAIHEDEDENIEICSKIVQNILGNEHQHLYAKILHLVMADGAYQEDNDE

[11] = molecular target: Cyclin-dependent kinase 16 (Homo sapiens) (UniProt Q00536); conditions: Compound concentration 100.0 nM
[12] = molecular target: Serine/threonine-protein kinase TNNI3K (Homo sapiens) (UniProt Q59H18); conditions: Compound concentration 100.0 nM
[13] = molecular target: Tyrosine-protein kinase Lck (Homo sapiens) (UniProt P06239); conditions: Compound concentration 100.0 nM
[14] = molecular target: Dual specificity tyrosine-phosphorylation-regulated kinase 1A (Homo sapiens) (UniProt Q13627); conditions: Compound concentration 100.0 nM
[15] = molecular target: Calcium/calmodulin-dependent protein kinase type 1G (Homo sapiens) (UniProt Q96NX5); conditions: Compound concentration 100.0 nM
D(1B) dopamine receptor = D(1B) dopamine receptor (Homo sapiens, UniProt P21918); conditions: Compound concentration 10.0 uM
[16] = molecular target: Tyrosine-protein kinase Tec (Homo sapiens) (UniProt P42680); conditions: Compound concentration 100.0 nM
[17] = molecular target: Cyclin-dependent kinase 4 (Homo sapiens) (UniProt P11802); conditions: Compound concentration 100.0 nM
[18] = molecular target: BMP-2-inducible protein kinase (Homo sapiens) (UniProt Q9NSY1); conditions: Compound concentration 100.0 nM
[19] = tested on: Phosphatidylinositol 4,5-bisphosphate 3-kinase catalytic subunit alpha isoform (Homo sapiens), P42336 [H1047Y]; conditions: Compound concentration 100.0 nM
[20] = molecular target: Misshapen-like kinase 1 (Homo sapiens) (UniProt Q8N4C8); conditions: Compound concentration 100.0 nM
[21] = molecular target: Serine/threonine-protein kinase D2 (Homo sapiens) (UniProt Q9BZL6); conditions: Compound concentration 100.0 nM
[22] = molecular target: Phosphatidylinositol 4,5-bisphosphate 3-kinase catalytic subunit beta isoform (Homo sapiens) (UniProt P42338); conditions: Compound concentration 100.0 nM
[23] = molecular target: Receptor tyrosine-protein kinase erbB-4 (Homo sapiens) (UniProt Q15303); conditions: Compound concentration 100.0 nM
[24] = molecular target: Serine/threonine-protein kinase VRK2 (Homo sapiens) (UniProt Q86Y07); conditions: Compound concentration 100.0 nM
[25] = molecular target: Phosphatidylinositol 4,5-bisphosphate 3-kinase catalytic subunit alpha isoform (Homo sapiens) (UniProt P42336); conditions: Compound concentration 100.0 nM
[26] = molecular target: Serine/threonine-protein kinase SIK2 (Homo sapiens) (UniProt Q9H0K1); conditions: Compound concentration 100.0 nM
[27] = molecular target: STE20-like serine/threonine-protein kinase (Homo sapiens) (UniProt Q9H2G2); conditions: Compound concentration 100.0 nM
Chain of STE20-like serine/threonine-protein kinase (Homo sapiens) (Q9H2G2 whole entry, looked up): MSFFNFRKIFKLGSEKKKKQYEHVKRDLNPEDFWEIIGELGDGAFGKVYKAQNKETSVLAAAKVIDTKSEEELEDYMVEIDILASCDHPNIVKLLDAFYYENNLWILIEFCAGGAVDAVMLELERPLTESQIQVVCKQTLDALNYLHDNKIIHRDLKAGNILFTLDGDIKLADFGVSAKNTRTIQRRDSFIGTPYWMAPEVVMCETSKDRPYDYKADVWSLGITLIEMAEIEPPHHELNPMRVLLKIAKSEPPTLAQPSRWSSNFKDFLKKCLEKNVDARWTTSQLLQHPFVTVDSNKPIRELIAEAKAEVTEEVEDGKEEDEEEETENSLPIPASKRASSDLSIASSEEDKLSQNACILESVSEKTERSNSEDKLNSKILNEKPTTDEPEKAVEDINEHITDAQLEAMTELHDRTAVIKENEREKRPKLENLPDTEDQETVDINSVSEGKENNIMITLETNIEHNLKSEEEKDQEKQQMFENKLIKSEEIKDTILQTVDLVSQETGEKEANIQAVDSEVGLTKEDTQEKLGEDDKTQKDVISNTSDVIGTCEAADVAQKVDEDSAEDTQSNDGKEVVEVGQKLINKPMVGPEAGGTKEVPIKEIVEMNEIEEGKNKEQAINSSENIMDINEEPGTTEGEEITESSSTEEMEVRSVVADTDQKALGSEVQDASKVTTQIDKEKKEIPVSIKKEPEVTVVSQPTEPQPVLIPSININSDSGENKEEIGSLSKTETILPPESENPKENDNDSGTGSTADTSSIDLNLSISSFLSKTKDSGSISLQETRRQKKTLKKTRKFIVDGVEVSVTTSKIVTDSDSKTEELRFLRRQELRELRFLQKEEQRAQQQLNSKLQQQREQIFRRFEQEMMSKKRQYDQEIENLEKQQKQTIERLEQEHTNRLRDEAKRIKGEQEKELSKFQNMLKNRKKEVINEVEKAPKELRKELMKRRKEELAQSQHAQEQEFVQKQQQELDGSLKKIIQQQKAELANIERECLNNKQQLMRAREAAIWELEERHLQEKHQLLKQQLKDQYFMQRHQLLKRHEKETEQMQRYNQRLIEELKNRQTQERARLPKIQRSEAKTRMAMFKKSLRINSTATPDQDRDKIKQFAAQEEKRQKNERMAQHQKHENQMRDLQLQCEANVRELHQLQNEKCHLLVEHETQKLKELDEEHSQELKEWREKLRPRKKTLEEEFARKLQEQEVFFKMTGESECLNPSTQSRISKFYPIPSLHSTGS

Chain of BMP-2-inducible protein kinase (Homo sapiens) (Q9NSY1 whole entry, looked up, canonical isoform): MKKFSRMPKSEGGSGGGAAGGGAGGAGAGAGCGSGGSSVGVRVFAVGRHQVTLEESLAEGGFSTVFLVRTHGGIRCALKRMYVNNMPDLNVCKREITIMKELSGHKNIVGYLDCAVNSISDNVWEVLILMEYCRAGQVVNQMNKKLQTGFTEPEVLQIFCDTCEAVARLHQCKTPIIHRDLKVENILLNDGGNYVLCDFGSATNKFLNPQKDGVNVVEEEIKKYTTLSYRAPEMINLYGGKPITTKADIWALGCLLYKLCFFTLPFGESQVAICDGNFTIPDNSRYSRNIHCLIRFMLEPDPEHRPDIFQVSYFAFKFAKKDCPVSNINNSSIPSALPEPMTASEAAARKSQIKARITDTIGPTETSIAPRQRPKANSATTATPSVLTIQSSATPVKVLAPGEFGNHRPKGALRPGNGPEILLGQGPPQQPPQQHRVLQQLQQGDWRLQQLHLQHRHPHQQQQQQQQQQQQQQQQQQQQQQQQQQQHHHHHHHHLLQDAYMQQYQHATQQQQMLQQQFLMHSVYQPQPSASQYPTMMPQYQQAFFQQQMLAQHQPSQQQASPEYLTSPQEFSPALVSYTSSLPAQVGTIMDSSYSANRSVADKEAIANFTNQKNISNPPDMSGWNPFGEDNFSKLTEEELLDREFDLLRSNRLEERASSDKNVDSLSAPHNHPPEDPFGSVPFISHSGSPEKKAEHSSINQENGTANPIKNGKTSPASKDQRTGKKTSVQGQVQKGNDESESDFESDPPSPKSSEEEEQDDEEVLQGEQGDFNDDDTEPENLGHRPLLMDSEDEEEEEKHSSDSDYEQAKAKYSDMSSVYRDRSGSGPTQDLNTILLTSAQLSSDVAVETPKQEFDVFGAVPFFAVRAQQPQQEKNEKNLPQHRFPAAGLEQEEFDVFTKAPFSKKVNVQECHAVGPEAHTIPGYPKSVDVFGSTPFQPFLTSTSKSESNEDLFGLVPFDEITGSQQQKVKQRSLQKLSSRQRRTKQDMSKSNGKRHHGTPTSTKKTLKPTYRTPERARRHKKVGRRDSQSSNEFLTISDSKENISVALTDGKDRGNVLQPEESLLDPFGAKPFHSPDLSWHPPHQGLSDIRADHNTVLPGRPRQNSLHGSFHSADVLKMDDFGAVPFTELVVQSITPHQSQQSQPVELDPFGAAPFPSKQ
Chain of Mitogen-activated protein kinase kinase kinase 6 (Homo sapiens) (O95382 whole entry): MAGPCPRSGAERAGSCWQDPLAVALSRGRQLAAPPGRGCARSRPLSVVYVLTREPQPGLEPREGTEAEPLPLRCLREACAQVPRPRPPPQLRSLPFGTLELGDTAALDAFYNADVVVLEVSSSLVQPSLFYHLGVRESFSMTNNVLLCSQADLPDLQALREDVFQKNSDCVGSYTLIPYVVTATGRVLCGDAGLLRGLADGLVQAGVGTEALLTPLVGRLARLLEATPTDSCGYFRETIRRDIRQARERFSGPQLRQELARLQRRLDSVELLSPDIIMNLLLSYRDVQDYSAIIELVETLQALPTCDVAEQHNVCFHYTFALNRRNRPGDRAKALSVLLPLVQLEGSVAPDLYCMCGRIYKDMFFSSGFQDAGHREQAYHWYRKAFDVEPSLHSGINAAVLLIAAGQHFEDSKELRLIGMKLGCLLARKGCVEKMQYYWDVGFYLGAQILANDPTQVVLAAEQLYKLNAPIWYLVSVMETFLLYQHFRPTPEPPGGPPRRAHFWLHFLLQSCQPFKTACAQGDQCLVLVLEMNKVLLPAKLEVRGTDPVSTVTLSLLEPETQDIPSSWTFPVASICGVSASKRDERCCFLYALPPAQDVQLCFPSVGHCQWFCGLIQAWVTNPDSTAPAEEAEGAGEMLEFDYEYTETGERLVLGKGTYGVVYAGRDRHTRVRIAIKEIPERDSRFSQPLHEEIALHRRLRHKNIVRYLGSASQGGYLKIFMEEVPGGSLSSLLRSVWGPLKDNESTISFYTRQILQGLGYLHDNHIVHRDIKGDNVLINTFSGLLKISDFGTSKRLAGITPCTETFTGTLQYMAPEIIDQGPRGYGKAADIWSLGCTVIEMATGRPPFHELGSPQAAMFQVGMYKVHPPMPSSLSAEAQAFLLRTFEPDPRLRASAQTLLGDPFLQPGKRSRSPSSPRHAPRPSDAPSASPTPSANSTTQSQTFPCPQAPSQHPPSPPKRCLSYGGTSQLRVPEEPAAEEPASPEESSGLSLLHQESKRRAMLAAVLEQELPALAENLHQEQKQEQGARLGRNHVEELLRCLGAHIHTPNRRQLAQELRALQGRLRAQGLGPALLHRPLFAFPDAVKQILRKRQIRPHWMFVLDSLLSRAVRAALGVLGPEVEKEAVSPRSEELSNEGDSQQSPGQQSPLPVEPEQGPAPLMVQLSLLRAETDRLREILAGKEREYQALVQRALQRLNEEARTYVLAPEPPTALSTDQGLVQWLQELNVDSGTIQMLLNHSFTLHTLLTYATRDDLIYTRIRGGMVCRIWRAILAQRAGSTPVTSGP
Chain of Misshapen-like kinase 1 (Homo sapiens) (Q8N4C8 whole entry, looked up): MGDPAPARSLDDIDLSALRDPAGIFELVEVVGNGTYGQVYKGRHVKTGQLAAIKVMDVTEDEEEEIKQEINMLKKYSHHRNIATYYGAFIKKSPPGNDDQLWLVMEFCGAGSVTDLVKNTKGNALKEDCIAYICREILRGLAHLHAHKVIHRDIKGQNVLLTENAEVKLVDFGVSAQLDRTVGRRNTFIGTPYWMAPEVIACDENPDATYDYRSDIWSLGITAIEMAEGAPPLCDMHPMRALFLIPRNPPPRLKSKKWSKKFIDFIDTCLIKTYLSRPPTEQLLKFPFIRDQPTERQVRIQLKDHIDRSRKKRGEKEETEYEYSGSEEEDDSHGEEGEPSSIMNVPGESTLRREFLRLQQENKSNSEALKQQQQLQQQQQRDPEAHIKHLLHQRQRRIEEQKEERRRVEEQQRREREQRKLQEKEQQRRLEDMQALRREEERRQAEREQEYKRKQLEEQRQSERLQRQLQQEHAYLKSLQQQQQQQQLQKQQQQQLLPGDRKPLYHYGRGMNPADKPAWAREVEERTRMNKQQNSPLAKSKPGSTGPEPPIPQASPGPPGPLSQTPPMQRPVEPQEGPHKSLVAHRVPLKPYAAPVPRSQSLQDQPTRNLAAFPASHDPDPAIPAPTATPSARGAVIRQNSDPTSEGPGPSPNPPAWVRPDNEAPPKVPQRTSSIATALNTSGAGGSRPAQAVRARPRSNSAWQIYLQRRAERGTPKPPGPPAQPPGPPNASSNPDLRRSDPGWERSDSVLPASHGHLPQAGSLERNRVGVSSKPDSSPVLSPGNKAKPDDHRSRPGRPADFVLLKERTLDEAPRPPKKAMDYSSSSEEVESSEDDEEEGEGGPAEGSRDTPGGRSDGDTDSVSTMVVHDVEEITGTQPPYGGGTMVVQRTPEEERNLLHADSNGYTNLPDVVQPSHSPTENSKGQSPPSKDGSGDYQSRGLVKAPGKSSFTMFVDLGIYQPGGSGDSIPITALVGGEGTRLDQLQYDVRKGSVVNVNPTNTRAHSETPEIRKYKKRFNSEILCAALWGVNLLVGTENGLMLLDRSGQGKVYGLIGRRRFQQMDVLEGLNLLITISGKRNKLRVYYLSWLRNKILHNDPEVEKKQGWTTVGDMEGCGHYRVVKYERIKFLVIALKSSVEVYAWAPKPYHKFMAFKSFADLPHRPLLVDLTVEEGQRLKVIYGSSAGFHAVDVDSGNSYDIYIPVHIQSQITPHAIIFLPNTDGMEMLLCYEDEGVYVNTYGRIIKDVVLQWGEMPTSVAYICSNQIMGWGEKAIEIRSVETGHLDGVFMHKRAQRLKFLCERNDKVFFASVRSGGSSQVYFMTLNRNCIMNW

Structure (SMILES) | residual activity [1] [%] | residual activity [2] [%] | residual activity [3] [%] | residual activity [4] [%] | residual activity [5] [%] | residual activity [6] [%] | residual activity [7] [%] | residual activity [8] [%] | residual activity [9] [%] | residual activity [10] [%] | residual activity [11] [%] | residual activity [12] [%] | residual activity [13] [%] | residual activity [14] [%] | residual activity [15] [%] | inhibition (D(1B) dopamine receptor) [%] | residual activity [16] [%] | residual activity [17] [%] | residual activity [18] [%] | residual activity [19] [%] | other results
Cn1nc(C(=O)NCc2ccc(C(=O)O)cc2)cc1-c1ccc2[nH]ccc2c1 [BI 4395] | 88 | 93 | 94 | 100 | 90 | 86 | 65 | 95 | 81 | 100 | 93 | 100 | 75 | 98 | 89 | 73.9 | 89 | 96 | 82 | 100 | residual activity [20]: 95%; residual activity [21]: 100%; residual activity [22]: 82%; residual activity [23]: 98%; residual activity [24]: 91%; residual activity [25]: 41%; residual activity [26]: 90%; residual activity [27]: 65%
CCOC(=O)c1cc2cc(-c3cc(C(=O)NCc4ccc(C(=O)O)cc4)nn3C)ccc2[nH]1 [BI 4394] | 79 | 98 | 100 | 0 | 85 | 90 | 81 | 80 | 100 | 100 | 75 | 100 | 94 | 90 | 100 | 59.6 | 99 | 82 | 100 | 77 | residual activity [20]: 94%; residual activity [21]: 100%; residual activity [22]: 88%; residual activity [23]: 96%; residual activity [24]: 98%; residual activity [25]: 92%; residual activity [26]: 100%; residual activity [27]: 98%
